Values of other authors in PMC11674187, “Inhibitory Effects of Cenobamate on Multiple Human Cardiac Ion Channels and Possible Arrhythmogenic Consequences” (Biomolecules, 2024).

Target: Nav1.5 (Homo sapiens, UniProt Q14524)
Design: method as in PMID 34785211, PMID 33620150
Conditions: PT 35–37 °C vs. room temperature; ref [11],[40]; cited from earlier work

Chain of Nav1.5 (Q14524 whole entry): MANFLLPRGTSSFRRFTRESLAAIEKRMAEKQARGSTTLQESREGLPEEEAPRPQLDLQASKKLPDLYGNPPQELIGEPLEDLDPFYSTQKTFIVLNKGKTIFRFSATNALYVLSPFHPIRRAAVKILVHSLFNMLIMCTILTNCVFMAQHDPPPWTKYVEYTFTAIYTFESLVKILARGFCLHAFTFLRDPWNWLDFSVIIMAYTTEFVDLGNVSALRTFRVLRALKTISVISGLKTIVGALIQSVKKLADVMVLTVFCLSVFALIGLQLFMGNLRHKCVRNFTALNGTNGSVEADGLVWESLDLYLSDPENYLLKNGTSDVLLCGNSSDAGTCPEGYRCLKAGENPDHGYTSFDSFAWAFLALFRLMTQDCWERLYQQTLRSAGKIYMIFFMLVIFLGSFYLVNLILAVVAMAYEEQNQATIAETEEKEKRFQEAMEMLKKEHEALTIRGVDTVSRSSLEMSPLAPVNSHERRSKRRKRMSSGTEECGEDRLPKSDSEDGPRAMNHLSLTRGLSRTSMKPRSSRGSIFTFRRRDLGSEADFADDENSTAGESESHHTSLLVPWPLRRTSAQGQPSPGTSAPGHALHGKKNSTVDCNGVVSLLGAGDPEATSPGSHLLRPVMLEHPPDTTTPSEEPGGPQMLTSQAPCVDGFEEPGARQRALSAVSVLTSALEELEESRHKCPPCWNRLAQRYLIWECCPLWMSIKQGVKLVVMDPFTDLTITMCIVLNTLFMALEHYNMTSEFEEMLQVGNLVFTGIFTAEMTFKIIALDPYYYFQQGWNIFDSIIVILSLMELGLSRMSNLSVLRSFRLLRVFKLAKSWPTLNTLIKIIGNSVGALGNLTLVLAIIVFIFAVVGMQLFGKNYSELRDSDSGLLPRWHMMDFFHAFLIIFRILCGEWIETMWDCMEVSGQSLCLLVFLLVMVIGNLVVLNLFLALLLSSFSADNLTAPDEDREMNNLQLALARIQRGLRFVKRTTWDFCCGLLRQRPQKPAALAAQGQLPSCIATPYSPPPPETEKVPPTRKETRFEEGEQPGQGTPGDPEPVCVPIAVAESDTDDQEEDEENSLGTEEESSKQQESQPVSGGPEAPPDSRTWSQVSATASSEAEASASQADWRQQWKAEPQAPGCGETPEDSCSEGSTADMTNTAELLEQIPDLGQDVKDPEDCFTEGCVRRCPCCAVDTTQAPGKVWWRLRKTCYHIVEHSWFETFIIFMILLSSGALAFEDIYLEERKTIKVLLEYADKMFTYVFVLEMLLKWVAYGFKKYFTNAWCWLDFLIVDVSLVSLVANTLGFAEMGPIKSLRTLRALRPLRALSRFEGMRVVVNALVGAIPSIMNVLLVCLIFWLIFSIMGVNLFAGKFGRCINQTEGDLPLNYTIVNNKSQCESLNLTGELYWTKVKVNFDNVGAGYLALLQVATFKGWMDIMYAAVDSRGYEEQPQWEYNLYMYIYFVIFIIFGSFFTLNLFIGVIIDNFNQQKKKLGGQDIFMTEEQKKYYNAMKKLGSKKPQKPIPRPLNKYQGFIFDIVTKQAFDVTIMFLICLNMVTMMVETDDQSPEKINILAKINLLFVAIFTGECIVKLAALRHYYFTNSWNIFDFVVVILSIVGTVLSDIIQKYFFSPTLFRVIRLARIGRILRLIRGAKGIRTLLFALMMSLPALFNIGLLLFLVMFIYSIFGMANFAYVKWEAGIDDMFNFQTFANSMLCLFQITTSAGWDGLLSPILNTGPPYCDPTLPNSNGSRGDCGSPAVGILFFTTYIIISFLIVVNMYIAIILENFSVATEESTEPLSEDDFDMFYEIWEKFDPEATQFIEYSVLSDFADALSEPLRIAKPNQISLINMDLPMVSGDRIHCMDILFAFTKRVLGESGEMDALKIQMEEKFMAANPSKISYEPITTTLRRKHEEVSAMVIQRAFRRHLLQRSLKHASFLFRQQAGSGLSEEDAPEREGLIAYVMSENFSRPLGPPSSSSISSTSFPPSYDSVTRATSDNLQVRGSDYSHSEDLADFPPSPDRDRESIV

Structure (SMILES) | change of apparent IC50 on peak Na+ current at physiological vs. room temperature
CCN(CC)CCCC(C)Nc1ccnc2cc(Cl)ccc12 (stereo not shown) [chloroquine] | approximately four-fold reduction
CCN(CCO)CCCC(C)Nc1ccnc2cc(Cl)ccc12 (stereo not shown) [hydroxychloroquine] | more than a two-fold reduction

System: human ventricular cardiomyocyte electrophysiology model
Design: method as in ref [18] Dutta et al., 2017
Conditions: 12-compound CiPA training set; ref [18] Dutta et al., 2017; cited from earlier work

Structure (SMILES) | CiPA torsadogenic risk category
Cc1nccn1CC1CCc2c(c3ccccc3n2C)C1=O (stereo not shown) [ondansetron] | intermediate risk
CN(C)CCCN1c2ccccc2Sc2ccc(Cl)cc21 [chlorpromazine] | intermediate risk
Cc1cccc(C)c1OCC(C)N (stereo not shown) [mexiletine] | low risk
COc1ccccc1OCC(O)CN1CCN(CC(=O)Nc2c(C)cccc2C)CC1 (stereo not shown) [ranolazine] | low risk
CC(C)COCC(CN(Cc1ccccc1)c1ccccc1)N1CCCC1 (stereo not shown) [bepridil] | high risk
COc1cc(N)c(Cl)cc1C(=O)NC1CCN(CCCOc2ccc(F)cc2)CC1OC (stereo not shown) [cisapride] | intermediate risk
CN(CCOc1ccc(NS(C)(=O)=O)cc1)CCc1ccc(NS(C)(=O)=O)cc1 [dofetilide] | high risk
C=C[C@H]1C[N@@]2CC[C@H]1C[C@@H]2[C@@H](O)c1ccnc2ccc(OC)cc12 [quinidine] | high risk

System: persistent INa
Design: method as in ref [5] p. 8
Conditions: other antiseizure drugs; ref [5] p. 8; cited from earlier work

Structure (SMILES) | IC50 [µM]
NC(=O)N1c2ccccc2C=Cc2ccccc21 [carbamazepine] | 79.2
Nc1nc2ccc(OC(F)(F)F)cc2s1 [riluzole] | 2
Nc1nnc(-c2cccc(Cl)c2Cl)c(N)n1 [lamotrigine] | 119
